Laboratory results taken from patent US6689803B2, “Compositions and methods for treating surgical adhesions” (Angiotech Pharmaceuticals, Inc., priority 1996, dated 2004).
pEC50: −log10 of the molar value. In brackets after ≈: the same amount, converted by molar mass. Read-outs that look alike come from different tables or passages of the source. Marks after values point to notes of the source that are not given here.

Columns and labels:
[1] = system: neutrophils; settings: human, 1 h, 46 µM
Experimental: Neutrophils were prepared from freshly collected human citrated whole blood. Briefly, 400 ml of blood were mixed with 80 ml of 4% dextran T500 (Phamacia LKB, Biotechnology AB Uppsala, Sweden) in HBSS and allowed to settle for 1 hour. Plasma was collected continuously and 5 ml applied to 5 ml of Ficoll Paque (Pharmacia) in 15 ml polypropylene tubes (Corning, N.Y.). Following centrifugation at 500 g for 30 minutes, the neutrophil pellets were washed free of erythrocytes by 20 seconds of hypotonic shock. Neutrophils were resuspended in HBSS, kept on ice and used for experiments within 3 hours. Neutrophil viability and purity was always greater than 90%.
To determine the effect of the anti-microtubule agents on neutrophil viability the release of the cytoplasmic marker enzyme, lactate dehydrogenase (LDH) was measured. Control tubes containing cells with drug (crystals absent) from degranulation experiments were also assayed for LDH.

[2] = Solubility / complexation of paclitaxel with cyclodextrins; format: physicochemical
Experimental: The mobile phase was composed of a mixture of acetonitrile, methanol and water (58:5:37) at a flow rate of 1.0 ml/minute.

[3] = system: LNCaP cells; test: LNCaP cell growth (crystal violet); format: cell-based, human; settings: Homo sapiens, LNCaP, 120 h; 5 days; read-out: EC50
Experimental: LNCaP cells were seeded at concentrations of 2×10^3 and 1×10^3 cells/well respectively in 96 well plates. […] After incubation, the cells were fixed with 1% glutaraldehyde solution, and stained for 5 minutes with 0.5% crystal violet. The dye was successively eluted with 100 μl of buffer solution and the absorbance was read on a Titertek Multiskan microplate reader using a wavelength of 492 nm Absorbance. Cell growth was expressed as a percentage relative to control wells in the absence of the compound (set at 100%).

[4] = system: chondrocytes; test: Viability of non-proliferating chondrocytes (trypan blue); format: cell-based; settings: up to 10^−5 M, 72 hours
Excerpt: While it is important that a disease-modifying agent be capable of strongly inhibiting a variety of inappropriate cellular activities (proliferation, inflammation, proteolytic enzyme production) which occur in excess during the development of chronic inflammation, it must not be toxic to the normal tissues. It is particularly critical that normal cells not be damaged, as this would lead to progression of the disease.

[5] = system: stromelysin (MMP-3) mRNA; test: IL-1 induced stromelysin mRNA expression in chondrocytes (Northern blot); format: cell-based
Excerpt: The blots were subsequently stripped and reprobed with ^32P-radiolabeled rat GAPDH cDNA, which was used as a housekeeping gene. […] The MMP-1 and MMP-3 expression levels were normalized with GAPDH.

[6] = system: chick chorioallantoic membrane (CAM) vasculature; settings: for CAM vasculature: 2-day exposure
[7] = Stability of paclitaxel in cyclodextrin solutions; format: physicochemical
Excerpt: The solutions containing 20% HPβCD or HPγCD had pH values of 3.9 and 5.2, respectively.

[8] = system: NF-κB; test: NF-κB activity (cell-based) reporter assay in NIH-3T3; set-up: species or system murine; settings: 6-hour and 24-hour treatments
Experimental: IL-1 and TNF were both identified as being proinflammatory cytokines that activate the transcription of genes driven by a transcription factor named NF-κB also involved in inflammatory processes. The inflammatory effect of IL-1 and TNF can therefore be indirectly assessed by means of a reporter gene assay (NF-κB) responding to IL-1 and TNF stimulation.
On day one, 5×10^4 NIH-3T3 (murine fibroblast), stably transfected with a NF-κB reporter construct (Luciferase, Promega Corp.), were plated per well (24-well plate). Once confluent (on day 3-4), cells were starved by replacing the complete medium with 1 ml of serum-free medium. Following a 24-hour starvation, cells were treated with various concentrations of anti-microtubule agents 6 hours prior to the addition of IL-1 (20 ng/ml) and TNF (20 ng/ml). Cells were exposed to IL-1 and TNF for 1 hour and 16 hours and NF-κB activity measured 24 hours later. On day five, the medium was discarded and the cells were rinsed once with PBS. Cells were then extracted for 15 minutes with 250 μl of lysis buffer (Promega Corp., Wisconsin). NF-κB transcriptional activity was assessed by adding 25 μl of luciferase substrate to a tube containing 2.5 μl of cell extract. The tube was immediately inserted in a luminometer (Turner Designs) and light emission measured for 10 seconds. The luciferase data were then normalized for protein concentration.

[9] = system: adhesion formation; test: Rabbit uterine horn model of surgical adhesions; format: in vivo
Experimental: New Zealand female white rabbits were anesthetized and a midline incision made through the skin and the abdominal wall. Both uterine horns were located and exteriorized. Using a French Catheter Scale, the diameter of each uterine horn was measured and recorded. Only those rabbits with uterine horns measuring size 8 to 16, inclusive, on the French scale were used. Using a number 10 scalpel blade, 5 cm lengths of each uterine horn, approximately 1 cm from the uterine bifurcation, were scraped, 40 times per side, until punctuate bleeding. Hemostasis was achieved by tamponade.
Test agent (0.4 to 2.5 ml) was applied over the horns via an 18 gauge needle. Uterine horns were replaced into the pelvis and the abdominal incision closed.
Body weights of the animals were recorded. The abdomen was opened and the surgical site inspected. Adhesions were graded by a blinded observer as follows:
The total length (cm) of each uterine horn involved with adhesions was estimated and recorded.
Adhesions were grades as 0 (absent), 1.0 (filmy adhesions) and 2.0 (tenacious, requiring sharp dissection).
The degree of uterine convolution was recorded according to the following scale:
No convolution: Straight lengths of adherent or non-adherent horns which are clearly discerned.
Completely convoluted: It is impossible to discern uterine anatomy because the horn is completely entangled.

[10] = system: collagen-induced arthritis
Experimental: Syngeneic female Louvain rats weighing 120 to 150 grams were injected intradermally with 0.5 mg of native chick collagen II (Genzyme, Boston, Mass.) solubilized in 0.1 M acetic acid and emulsified in FIA (Difco, Detroit, Mich.). […] The control and experimental animals were evaluated for disease severity both clinically and radiographically by individuals blinded to treatment groups.
The severity of inflammation for each limb was evaluated daily and scored based on standardized levels of swelling and periarticular erythema (0 being normal and 4 severe). Animals were evaluated radiographically on day 28 of the experiment. The radiographs of both hind limbs were graded by the degree of soft tissue swelling, joint space narrowing, bone destruction, and periosteal new bone formation. A scale of 0-3 was used to quantify each limb (0=normal, 1=soft tissue swelling, 2=early erosions of bone, 3=severe bone destruction and/or ankylosis). Histological assessment of the joints was completed at the conclusion of the experiment.
Delayed-type hypersensitivity (DTH) to CII was determined by a radiometric ear assay completed on day 28. Radiometric ear indices≧1.4 represent a significant response to CII. The presence of anti-CII IgG antibodies was determined by enzyme-linked immunosorbent assay (ELISA).

CC(=O)O[C@H]1C(=O)[C@@]2(C)[C@H]([C@H](OC(=O)c3ccccc3)[C@]3(O)C[C@H](OC(=O)[C@H](O)[C@@H](NC(=O)c4ccccc4)c4ccccc4)C(C)=C1C3(C)C)[C@]1(OC(C)=O)CO[C@@H]1C[C@@H]2O [paclitaxel]
LDH release [1]: less than 5 % of total | solubility ([2]; 50% HPβ-CD in water, aqueous with cosolvent or surfactant or cyclodextrin, thermodynamic from solid, 50% solution of HPβ-CD in water, 37° C.): 3200 µg/mL (≈ 3.75 mM) | increase over the solubility of paclitaxel in water ([2]; 50% solution of HPβ-CD in water, 37° C.): ~2000 fold | apparent stability constant ([2]; HPβ-CD in the presence of 50% ethanol): 26.57 M⁻¹ | stability constant, first order complex ([2]; HPβ-CD, 37° C.): 7.2 M⁻¹ | stability constant lower than in the absence of ethanol ([2]; HPβ-CD, 50% ethanol): about 300 times | stability constant, first order complex ([2]; HPγ-CD, 37° C.): 5.8 M⁻¹ | stability constant, first order complex ([2]; γ-CD, 37° C.): 3.1 M⁻¹ | pEC50 [3]: ~10.05 | viability of normal non-proliferating cells [4]: does not affect the viability | concentration inhibiting stromelysin expression in vitro [5]: 10^−6 M | stromelysin mRNA levels ([5]; 10^−5 M, pretreatment 24 hours, IL-1): complete inhibition | CAM vasculature ([6]; 5% paclitaxel-loaded PCL microspheres, 1 mg): marked vascular regression and zones which were devoid of a capillary network | diameter of avascular areas ([6]; 48 hour exposure to 10 μg paclitaxel per 10 ml of methylcellulose): approximately 6 mm | avascular zones did not revascularize for ([6]; after application): at least 7 days | inhibition of angiogenesis occurs as early as ([6]; after application): 9 h | avascular gradient scale ([6]; maximal avascular zone within 48 hours depending on concentration, methylcellulose disk): 3 | Inhibition/n ([6]; micellar solution (10 ul), 10%): too toxic | CAM vasculature ([6]; paclitaxel-gelatin-PCL paste, 1 mg pieces): consistently showed vascular regression and zones which lacked a capillary network | maximal avascular zone diameter ([6]; within 48 hours depending on concentration, methylcellulose disk): 6 mm | degradation rate constant k ([7]; 1 μg/ml paclitaxel, 1% HPβ-CD, 55° C.): 0.00338 h⁻¹ | degradation rate constant ([7]; 10% HPβ-CD (FIG. 42: 20 μg/ml, 37° C., pH 3.7)): 0.00178 h⁻¹ | degradation rate constant ([7]; 10% HPγ-CD (FIG. 42: 20 μg/ml, 37° C., pH 4.9)): 0.00096 h⁻¹ | inhibitory effect on IL-1- and TNF-induced NF-κB activity [8]: ~2 µM | Adhesion-Free: number of uterine horns free of adhesions/total ([9]; 0.1% in vehicle): 0/20 | Convolution: number of uterine horns with no convolution/partial convolution/full convolution ([9]; 0.1% in vehicle): 16/2/2† | Extent: length of uterine horn with adhesions (± Standard Error of the Mean) ([9]; 0.1% in vehicle): 2.925 (0.338)* cm | Extent: length of uterine horn with adhesions (± Standard Error of the Mean) ([9]; 0.1% in vehicle, listed as Paclitaxel): 2.925±0.338 cm | Adhesion-Free: number of uterine horns free of adhesions/total ([9]; 1% in vehicle): 0/18 | Convolution: number of uterine horns with no convolution/partial convolution/full convolution ([9]; 1% in vehicle): 18/0/0‡ | Extent: length of uterine horn with adhesions (± Standard Error of the Mean) ([9]; 1% in vehicle): 2.028±0.374 cm | Extent: length of uterine horn with adhesions (± Standard Error of the Mean) ([9]; 1% in vehicle, listed as paclltaxel): 2.028 (0.374)** cm | radiographic disease ([10]; high- and low-dose suppression groups vs control): significantly less radiographic disease | clinical symptoms ([10]; low- and high-dose suppression protocols, i.p. from day 9): significant clinical improvement | IgG antibodies to type II collagen (ELISA) ([10]; paclitaxel-treated rats vs control group): significantly lower | radiographic changes / clinical arthritis ([10]; prevention protocol): None of the rats in the paclitaxel arthritis prevention protocol manifested any radiographic changes or clinical arthritis | development of arthritis ([10]; prevention protocol: 1 mg/kg i.p. from day 2): completely precluded development of the disease | toxic effects of the treatment ([10]; rat, in vivo): few, if any toxic effects
